Test results taken from publication PMC4539421, “A Novel Microbisporicin Producer Identified by Early Dereplication during Lantibiotic Screening” (BioMed Research International, 2015).
No end group written: not given here.

Tests used:
S. aureus = assay: Bioautography of HPLC fractions, S. aureus; assay type: cell-based, Staphylococcus aureus; settings: 1 mL HPLC fractions dried, resuspended in 100 μL 10% DMSO, 10 μL tested
Experimental: (§1) For bioautography, fractions (1 mL, eluting at 1 mL/min) from the HPLC column were collected, dried, and resuspended in 100 μL aqueous solution at 10% (v/v) DMSO. 10 μL were tested for antimicrobial activity. UV and mass spectra of molecules present in the active fractions were compared with those collected in the ABL database, which contains data on approximately 30,000 microbial metabolites collected from literature and patents since 1950 [20, 28], and in the commercially available Antibase (http://wwwuser.gwdg.de/~hlaatsc/antibase.htm).

S. aureus L-form L3751 = assay: Bioautography of HPLC fractions, S. aureus L-form; assay type: cell-based, Staphylococcus aureus; settings: 1 mL HPLC fractions dried, resuspended in 100 μL 10% DMSO, 10 μL tested
Experimental: as §1

L49 S. pyogenes = assay: MIC by broth microdilution, S. pyogenes; assay type: cell-based, Streptococcus pyogenes; settings: broth microdilution assay [27]
Experimental: (§2) Broth and mycelium screening extracts from the F.I.I.R.V. collection of Actinoallomurus strains isolated according as above were screened in liquid microplate assays for their antimicrobial activity on S. aureus 209 ATCC 6538P (L100) and to its L-form cells (L3751), as described in detail in [7]. In brief, S. aureus 209 ATCC 6538P (L100) and its L-form cells (L3751) were maintained at −80°C in Nutrient Broth (Difco) to which 20% (v/v) glycerol was added. EBH/S supplemented with 5% (v/v) horse serum was used as medium. For the wild-type inoculum, 10 μL of extracts previously dissolved in DMSO : H2O 1 : 9 (v/v) were added to 1 × 10^5 CFU/mL in 90 μL of culture broth. For L-form cells, aliquots of liquid cultures grown overnight in EBHI/S to O.D.620 nm = 0.2 were used as inoculum. Incubation time was 24 h at 35°C in air, and then growth inhibition was measured at O.D.620 nm. Reference actagardine, planosporicin, microbisporicin, mersacidin, and nisin standards were used and MIC levels were determined by broth microdilution assay as recommended by the National Committee for Clinical Laboratory Standards. To identify β-lactam producers, antimicrobial activity versus S. aureus 209 ATCC 6538P (L100) was measured in a liquid microplate assay after adding the following cocktail of β-lactamases: Penicillase Type I from Bacillus cereus (Sigma P0389), 0.001 U/mL; Penicillase Type II from Bacillus cereus (Sigma P6018), 0.002 U/mL; Penicillase type III from Enterobacter cloacae (Sigma P4399), 0.0025 U/mL; and Penicillase type IV from Enterobacter cloacae (Sigma P4524), 0.5 U/mL. To identify glycopeptide producers, antimicrobial activity versus S. aureus 209 ATCC 6538P (L100) was measured in a liquid microplate assay after adding 2 mg/mL of Ac-Lys-D-alanyl-D-alanine (Chem-Impex International Inc., IL).
(§3) Antimicrobial activity was determined by broth microdilution assay according to standard guidelines. […]

L145 C. albicans = assay type: cell-based, Candida albicans; settings: broth microdilution assay [27]
Experimental: as §2, §3

L3751 S. aureus L-form = assay: MIC by broth microdilution, S. aureus L-form; assay type: cell-based, Staphylococcus aureus; settings: broth microdilution assay [27]; L-form cells
Experimental: Staphylococcus aureus 209 ATCC 6538P (L100) were purchased from the American Type Culture Collection (ATCC; Manassas VA). L-form cells (L3751) were prepared from L100 by exposure to 100 U of penicillin in Enterococcal Brain Heart Infusion/S (EBH/S) supplemented with 5% NaCl, 5% sucrose, and 10% horse serum as previously described. L-forms were then cultured on similarly supplemented brain heart infusion agar containing no antibiotic. S. aureus Smith ATCC19636 (L819), Streptococcus pyogenes C203 ATCC12384 (L49), and other clinical isolates (S. aureus L1400, Enterococcus faecalis L559, Enterococcus faecalis Van A L560, Escherichia coli SKF12140 L47, and Candida albicans SKF2270 L145) were maintained in the Fondazione Istituto Insubrico Ricerca per la Vita (F.I.I.R.V.) culture collection (L collection) at Gerenzano, Italy.
as §2, §3

L1400 S. aureus MRSA = assay: MIC by broth microdilution, MRSA; assay type: cell-based, Staphylococcus aureus; settings: broth microdilution assay [27]; MRSA clinical isolate
Experimental: as §2
(§4) Antimicrobial activity was determined by broth microdilution assay according to standard guidelines. The growth media utilized to determine the MIC were cation-adjusted Difco Mueller Hinton Broth (MHB) for Staphylococci, Enterococci, and E. coli, Todd Hewitt Broth (THB) for Streptococci, and RPMI-1640 medium (RPMI) for C. albicans. Typically, a twofold serial dilution of the test compound was performed in a sterile 96-well microplate inoculated with 10^4 CFU/mL of the test strain in the appropriate medium. The microplate was then incubated for 18–24 h at 35°C.

L47 E. coli = assay type: cell-based, Escherichia coli; settings: broth microdilution assay [27]
Experimental: as §2, §3

L100 S. aureus ATCC6538P = assay: MIC by broth microdilution, S. aureus; assay type: cell-based, Staphylococcus aureus; settings: broth microdilution assay [27]
Experimental: as §2, §4

Microbisporicin A2
Growth inhibition by HPLC fraction (bioautography) (S. aureus): inhibits the microbial growth | Growth inhibition by HPLC fraction (bioautography) (S. aureus L-form L3751): but not its L-form

Microbisporicin
MIC (L49 S. pyogenes): <1 µg/mL | MIC (L145 C. albicans): >128 µg/mL | MIC (L3751 S. aureus L-form): >128 µg/mL | MIC (L1400 S. aureus MRSA): ≤0.13 µg/mL | MIC (L47 E. coli): >128 µg/mL | MIC (L100 S. aureus ATCC6538P): ≤0.13 µg/mL

Mersacidin (CTFTLPGGGGVCTLTSECIC; also: lantibiotic mersacidin, thioether rings not placed; UniProt P43683 49-68, looked up) [lantibiotic standard]
MIC (L3751 S. aureus L-form): 64 µg/mL | MIC (L1400 S. aureus MRSA): 8 µg/mL | MIC (L100 S. aureus ATCC6538P): 4 µg/mL

Planosporicin
MIC (L49 S. pyogenes): <1 µg/mL | MIC (L145 C. albicans): >128 µg/mL | MIC (L3751 S. aureus L-form): >128 µg/mL | MIC (L1400 S. aureus MRSA): 16 µg/mL | MIC (L47 E. coli): >128 µg/mL | MIC (L100 S. aureus ATCC6538P): 2 µg/mL

Actagardine
MIC (L49 S. pyogenes): 2 µg/mL | MIC (L145 C. albicans): >128 µg/mL | MIC (L3751 S. aureus L-form): >128 µg/mL | MIC (L1400 S. aureus MRSA): 16 µg/mL | MIC (L47 E. coli): >128 µg/mL | MIC (L100 S. aureus ATCC6538P): 32 µg/mL
